Laboratory results as given in ChEMBL document CHEMBL5579860, “Design and synthesis of novel Thiazolo[5,4-b]pyridine derivatives as potent and selective EGFR-TK inhibitors targeting resistance Mutations in non-small cell lung cancer” (Eur J Med Chem, 2024).
Active and inactive are the calls of the source. The calls are words filed in the database; no cut-off is given here.

How the values were obtained:
HCC827 [1] = experiment: Anticancer activity against human HCC827 cells incubated for 72 hrs by MTT assay; type: functional, cell-based; conditions: HCC827, 72 h
A549 = experiment: Anticancer activity against human A549 cells incubated for 72 hrs by MTT assay; type: functional, cell-based; conditions: A549, 72 h
NCI-H1975 = experiment: Anticancer activity against human NCI-H1975 cells incubated for 72 hrs by MTT assay; type: functional, cell-based; conditions: NCI-H1975, 72 h
[2] = target: Epidermal growth factor receptor (Homo sapiens) (UniProt P00533); experiment: Inhibition of EGFR autophosphorylation in human HCC827 cells at 0.01 to 1.00 uM incubated for 8 hrs by Western blot analysis; type: cell-based; conditions: dose 0.01-1 µM
HCC827 [3] = experiment: Induction of apoptosis in human HCC827 cells assessed as early apoptotic cells at IC50 concentration incubated for 24 to 48 hrs by Annexin V-FITC/PI staining based flow cytometry ( Rvb = 2.0% ); type: functional; conditions: time 24-48 hrs
HCC827 [4] = experiment: Induction of apoptosis in human HCC827 cells assessed as late apoptotic cells at IC50 concentration incubated for 24 to 48 hrs by Annexin V-FITC/PI staining based flow cytometry ( Rvb = 1.6% ); type: functional; conditions: time 24-48 hrs
[5] = Cytotoxicity against human BEAS-2B cells; type: toxicity, cell-based

Chain of Epidermal growth factor receptor (Homo sapiens) (P00533 whole entry): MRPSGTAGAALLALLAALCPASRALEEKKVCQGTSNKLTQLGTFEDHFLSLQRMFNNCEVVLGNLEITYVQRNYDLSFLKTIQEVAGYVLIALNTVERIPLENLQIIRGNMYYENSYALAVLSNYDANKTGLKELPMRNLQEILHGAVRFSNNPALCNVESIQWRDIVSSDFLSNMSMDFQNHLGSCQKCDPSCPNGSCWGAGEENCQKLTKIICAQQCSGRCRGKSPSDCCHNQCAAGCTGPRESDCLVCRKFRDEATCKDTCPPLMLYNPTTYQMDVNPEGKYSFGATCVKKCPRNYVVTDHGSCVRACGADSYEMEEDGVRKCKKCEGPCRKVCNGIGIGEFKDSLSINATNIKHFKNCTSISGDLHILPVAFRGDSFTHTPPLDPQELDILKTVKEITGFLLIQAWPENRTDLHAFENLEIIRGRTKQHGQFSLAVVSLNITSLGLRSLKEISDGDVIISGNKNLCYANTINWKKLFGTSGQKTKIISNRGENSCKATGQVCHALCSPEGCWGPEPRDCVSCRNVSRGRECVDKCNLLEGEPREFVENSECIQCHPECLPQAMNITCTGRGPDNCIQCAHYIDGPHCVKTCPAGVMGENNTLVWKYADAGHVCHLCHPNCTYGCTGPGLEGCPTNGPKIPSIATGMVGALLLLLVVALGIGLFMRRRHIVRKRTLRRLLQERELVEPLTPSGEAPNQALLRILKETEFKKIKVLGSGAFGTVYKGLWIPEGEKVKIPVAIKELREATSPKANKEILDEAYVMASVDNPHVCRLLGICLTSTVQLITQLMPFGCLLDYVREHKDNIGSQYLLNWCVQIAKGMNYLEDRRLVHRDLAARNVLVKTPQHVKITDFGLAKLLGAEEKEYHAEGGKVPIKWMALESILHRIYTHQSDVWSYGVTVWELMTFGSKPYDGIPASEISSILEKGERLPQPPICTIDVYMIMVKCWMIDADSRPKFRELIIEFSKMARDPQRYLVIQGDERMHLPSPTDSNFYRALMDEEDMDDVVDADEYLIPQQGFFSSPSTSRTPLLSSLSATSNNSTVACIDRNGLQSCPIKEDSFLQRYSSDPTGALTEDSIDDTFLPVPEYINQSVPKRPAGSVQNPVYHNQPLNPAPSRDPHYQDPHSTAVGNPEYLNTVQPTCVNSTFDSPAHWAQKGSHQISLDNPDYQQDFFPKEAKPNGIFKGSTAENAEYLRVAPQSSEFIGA

| IC50 (HCC827 [1]) [µM] | IC50 (A549) [µM] | IC50 (NCI-H1975) [µM] | inhibition [2] | Structure (SMILES) | Activity (HCC827 [3]) [%] | Activity (HCC827 [4]) [%] | IC50 [5] [µM] |
| --- | --- | --- | --- | --- | --- | --- | --- |
| 0.042 | 0.96 | 0.18 | – | COc1cc(-c2cnc3sc(-c4cccc(NS(=O)(=O)c5cc(F)ccc5F)c4C)nc3c2)ccn1 | – | – | – |
| 0.094 | 1.28 | 0.28 | – | Cc1c(NS(=O)(=O)c2cc(F)ccc2F)cccc1-c1nc2cc(C#N)cnc2s1 | – | – | – |
| 0.42 | 2.1 | 0.46 | – | Cc1c(NS(=O)(=O)c2cc(F)ccc2F)cccc1-c1nc2cc(CN3CCOCC3)cnc2s1 | – | – | – |
| 0.11 | 1.33 | 0.3 | – | Cc1c(NS(=O)(=O)c2cc(F)ccc2F)cccc1-c1nc2cc(-c3cccs3)cnc2s1 | – | – | – |
| 5.01 | 9.34 | 4.89 | – | COc1ccc(F)cc1S(=O)(=O)Nc1cccc(-c2nc3cc(-c4cc[nH]n4)cnc3s2)c1C | – | – | – |
| 6.11 | 11.4 | 6.25 | – | COc1ccc(F)cc1S(=O)(=O)Nc1cccc(-c2nc3cc(C#N)cnc3s2)c1C | – | – | – |
| 6.01 | 11.2 | 6.19 | – | COc1ccc(F)cc1S(=O)(=O)Nc1cccc(-c2nc3cc(-c4cccnc4)cnc3s2)c1C | – | – | – |
| 0.72 | 1.09 | 0.34 | – | COc1cccc(-c2cnc3sc(-c4cccc(NS(=O)(=O)c5cc(F)ccc5F)c4C)nc3c2)c1 | – | – | – |
| 4.88 | 9.08 | 4.72 | – | COc1ccc(F)cc1S(=O)(=O)Nc1cccc(-c2nc3cc(-c4cccs4)cnc3s2)c1C | – | – | – |
| 0.01 | 0.82 | 0.08 | Active | Cc1c(NS(=O)(=O)c2cc(F)ccc2F)cccc1-c1nc2cc(-c3cnc(N)nc3)cnc2s1 | 31.9 | 8.8 | 38.4 |
| 0.089 | 1.16 | 0.22 | – | Cc1c(NS(=O)(=O)c2cc(F)ccc2F)cccc1-c1nc2cc(-c3ccccc3)cnc2s1 | – | – | – |
| 1.46 | 3.27 | 2.1 | – | Cc1c(NS(=O)(=O)c2ccc(F)c(C#N)c2)cccc1-c1nc2cccnc2s1 | – | – | – |
| 2.24 | 4.62 | 3.41 | – | Cc1c(NS(=O)(=O)Cc2ccccc2)cccc1-c1nc2cccnc2s1 | – | – | – |
| 0.04 | 0.92 | 0.15 | – | COc1ncccc1-c1cnc2sc(-c3cccc(NS(=O)(=O)c4cc(F)ccc4F)c3C)nc2c1 | – | – | 37.1 |
| 2.18 | 4.23 | 3.3 | – | Cc1c(NS(=O)(=O)c2cnn(C)c2)cccc1-c1nc2cccnc2s1 | – | – | – |
| 4.5 | 8.5 | 4.6 | – | COc1ccc(F)cc1S(=O)(=O)Nc1cccc(-c2nc3cc(CN4CCN(C)CC4)cnc3s2)c1C | – | – | – |
| 10.1 | 29.1 | 12.7 | – | Cc1c(N)cccc1-c1nc2cccnc2s1 | – | – | – |
| 0.7 | 1.48 | 0.42 | – | CCc1cnc2sc(-c3cccc(NS(=O)(=O)c4cc(F)ccc4F)c3C)nc2c1 | – | – | – |
| 2.2 | 4.6 | 3.32 | – | Cc1c(NS(=O)(=O)c2ccccc2)cccc1-c1nc2cccnc2s1 | – | – | – |
| 2.1 | 4.1 | 3.06 | – | Cc1c(NS(=O)(=O)c2cccnc2)cccc1-c1nc2cccnc2s1 | – | – | – |
| 0.041 | 0.91 | 0.12 | – | Cc1c(NS(=O)(=O)c2cc(F)ccc2F)cccc1-c1nc2cc(-c3ccc(C#N)nc3)cnc2s1 | – | – | 37 |
| 4.42 | 8.45 | 4.56 | – | COc1cc(-c2cnc3sc(-c4cccc(NS(=O)(=O)c5cc(F)ccc5OC)c4C)nc3c2)ccn1 | – | – | – |
| 6.02 | 10.9 | 6.11 | – | COc1ccc(F)cc1S(=O)(=O)Nc1cccc(-c2nc3cc(-c4cccc(C(F)(F)F)c4)cnc3s2)c1C | – | – | – |

| IC50 (HCC827 [1]) [µM] | IC50 (A549) [µM] | IC50 (NCI-H1975) [µM] | inhibition [2] | Structure (SMILES) | Activity (HCC827 [3]) [%] | Activity (HCC827 [4]) [%] | IC50 [5] [µM] |
| --- | --- | --- | --- | --- | --- | --- | --- |
| 0.52 | 2.31 | 0.77 | – | Cc1c(NS(=O)(=O)c2cc(F)ccc2F)cccc1-c1nc2cc(CN3CCN(C)CC3)cnc2s1 | – | – | – |
| 0.021 | 0.88 | 0.11 | – | Cc1c(NS(=O)(=O)c2cc(F)ccc2F)cccc1-c1nc2cc(-c3cncnc3)cnc2s1 | – | – | 42.1 |
| 0.092 | 1.21 | 0.26 | – | Cc1c(NS(=O)(=O)c2cc(F)ccc2F)cccc1-c1nc2cc(-c3cccc(C(F)(F)F)c3)cnc2s1 | – | – | – |
| 1.59 | 3.28 | 2.21 | – | Cc1c(NS(=O)(=O)c2cccc(Cl)c2)cccc1-c1nc2cccnc2s1 | – | – | – |
| 4.4 | 8.41 | 4.55 | – | COc1ccc(F)cc1S(=O)(=O)Nc1cccc(-c2nc3cc(-c4cccnc4OC)cnc3s2)c1C | – | – | – |
| 2.11 | 4.18 | 3.12 | – | Cc1c(NS(=O)(=O)C2CCOCC2)cccc1-c1nc2cccnc2s1 | – | – | – |
| 4.31 | 8.12 | 4.14 | – | COc1ccc(F)cc1S(=O)(=O)Nc1cccc(-c2nc3cc(-c4cnc(N)nc4)cnc3s2)c1C | – | – | – |
| 0.49 | 2.18 | 0.52 | – | Cc1c(NS(=O)(=O)c2cc(F)ccc2F)cccc1-c1nc2cc(CN3CCCC3)cnc2s1 | – | – | – |
| 0.044 | 0.98 | 0.22 | – | Cc1c(NS(=O)(=O)c2cc(F)ccc2F)cccc1-c1nc2cc(-c3ccc(C(F)(F)F)nc3)cnc2s1 | – | – | – |
| 1.4 | 3.17 | 2.11 | – | Cc1c(NS(=O)(=O)c2ccc(F)cc2F)cccc1-c1nc2cccnc2s1 | – | – | – |
| 0.14 | 1.34 | 0.3 | – | Cc1c(NS(=O)(=O)c2cc(F)ccc2F)cccc1-c1nc2cc(-c3cc[nH]n3)cnc2s1 | – | – | – |
| 6.21 | 11.7 | 7.1 | – | COc1cccc(-c2cnc3sc(-c4cccc(NS(=O)(=O)c5cc(F)ccc5OC)c4C)nc3c2)c1 | – | – | – |
| 6.14 | 11.4 | 6.3 | – | COc1ccc(F)cc1S(=O)(=O)Nc1cccc(-c2nc3cc(-c4ccc(C(C)=O)cc4)cnc3s2)c1C | – | – | – |
| 4.61 | 8.54 | 4.7 | – | COc1ccc(F)cc1S(=O)(=O)Nc1cccc(-c2nc3cc(CN4CCOCC4)cnc3s2)c1C | – | – | – |
| 1.16 | 3.09 | 1.09 | – | Cc1c(NS(=O)(=O)c2cc(F)ccc2F)cccc1-c1nc2cccnc2s1 | – | – | – |
| 1.52 | 3.19 | 2.18 | – | Cc1c(NS(=O)(=O)c2ccccc2OC(F)(F)F)cccc1-c1nc2cccnc2s1 | – | – | – |
| 6.08 | 11 | 6.2 | – | COc1ccc(F)cc1S(=O)(=O)Nc1cccc(-c2nc3cc(-c4ccccc4)cnc3s2)c1C | – | – | – |
| 0.56 | 1.42 | 0.36 | – | CC(=O)c1ccc(-c2cnc3sc(-c4cccc(NS(=O)(=O)c5cc(F)ccc5F)c4C)nc3c2)cc1 | – | – | – |
| 0.01 | 0.8 | 0.09 | – | CSc1ncc(-c2cnc3sc(-c4cccc(NS(=O)(=O)c5cc(F)ccc5F)c4C)nc3c2)cn1 | – | – | 44.1 |
| 4.38 | 8.33 | 4.5 | – | COc1ccc(F)cc1S(=O)(=O)Nc1cccc(-c2nc3cc(-c4ccc(C#N)nc4)cnc3s2)c1C | – | – | – |
| 4.33 | 8.14 | 4.38 | – | COc1ccc(F)cc1S(=O)(=O)Nc1cccc(-c2nc3cc(-c4cncnc4)cnc3s2)c1C | – | – | – |
| 4.36 | 8.23 | 4.44 | – | COc1ccc(F)cc1S(=O)(=O)Nc1cccc(-c2nc3cc(-c4ccc(C(F)(F)F)nc4)cnc3s2)c1C | – | – | – |

| Structure (SMILES) | IC50 (HCC827 [1]) [µM] | IC50 (A549) [µM] | IC50 (NCI-H1975) [µM] | inhibition [2] | Activity (HCC827 [3]) [%] | Activity (HCC827 [4]) [%] | IC50 [5] [µM] |
| --- | --- | --- | --- | --- | --- | --- | --- |
| C=CC(=O)Nc1cc(Nc2nccc(-c3cn(C)c4ccccc34)n2)c(OC)cc1N(C)CCN(C)C [OSIMERTINIB] | 0.007 | 0.86 | – | – | – | – | – |
